Test results published in patent US20110076293A1, “TRIPTOLIDE DERIVATIVES FOR MODULATION OF APOPTOSIS AND IMMUNOSUPPRESSION” (priority 2002, published 2011).
Where two headings read alike, the source gives them in different places.

System: Jurkat human T lymphocyte cell line
Assay: Apoptosis assay (Annexin V) of compounds incubated with human serum
Conditions: for EC50: read-out: ED50 (nM) in apoptosis assay after incubation with serum, 37° C.
Outline: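 Test compounds at 20 mM were preincubated in pooled human serum at 37° C for varying times, then serially diluted to final 1–10,000 nM. Jurkat cells (1×10^5 per well) were exposed for 24 h at 37° C, and apoptosis was scored by Annexin V-FITC flow cytometry. ED50 came from dose-response curves, and % conversion was expressed relative to the triptolide ED50 in the same serum.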

[1] = Table 3, human serum, 0 hr, 10000 nM
[2] = Table 3, human serum, 48 hr, 1 nM
[3] = Table 3, human serum, 48 hr, 3 nM
[4] = Table 3, human serum, 48 hr, 10 nM
[5] = Table 3, human serum, 48 hr, 30 nM
[6] = Table 3, human serum, 48 hr, 100 nM
[7] = Table 3, human serum, 48 hr, 300 nM
[8] = Table 3, human serum, 48 hr, 1000 nM
[9] = Table 3, human serum, 48 hr, 3000 nM
[10] = Table 3, human serum, 48 hr, 10000 nM
[11] = Table 4, serum, 48 hr, 10000 nM
[12] = Table 5, human serum (48 hrs), 1 nM
[13] = Table 5, human serum (48 hrs), 3 nM
[14] = Table 5, human serum (48 hrs), 10 nM
[15] = Table 5, human serum (48 hrs), 30 nM
[16] = Table 5, human serum (48 hrs), 100 nM
[17] = Table 5, human serum (48 hrs), 300 nM
[18] = Table 5, human serum (48 hrs), 1000 nM
[19] = Table 5, human serum (48 hrs), 3000 nM
[20] = after 48 hr. incubation in human serum
[21] = incubation time in human serum 0.5 hours
[22] = incubation time in human serum 1 hour
[23] = incubation time in human serum 24 hours
[24] = incubation time in human serum 48 hours

`CC(C)[C@]12O[C@H]1[C@@H]1O[C@]13[C@]1(O[C@H]1C[C@H]1C4=C(CC[C@@]13C)C(=O)OC4)[C@@H]2O` [PG490, Triptolide] was tested, and the “% apoptotic cells at given concentration (nM)” value (shortened to “% apoptotic cells”) [1] was 94.9%, the “% apoptotic cells” value [2] was 8.5% and the “% apoptotic cells” value [3] was 8.5%. For the same compound, the “% apoptotic cells” value [4] was 8.5%, the “% apoptotic cells” value [5] was 26.2% and the “% apoptotic cells” value [6] was 91.7%. For the same compound, the “% apoptotic cells” value [7] was 93.4%, the “% apoptotic cells” value [8] was 94.6% and the “% apoptotic cells” value [9] was 95.2%. The “% apoptotic cells” value [10] was 95.4%, the “% apoptotic cells” value (Table 3, medium only, 10000 nM) was 96.5% and the “% apoptotic cells” value (Table 4, medium, 10000 nM) was 93.4%. The “% apoptotic cells” value (Table 4, serum, 0 hr, 10000 nM) was 92.1%, the “% apoptotic cells” value (Table 4, serum, 48 hr, 0.03 nM) was 7.0% and the “% apoptotic cells” value (Table 4, serum, 48 hr, 0.1 nM) was 6.9%. For the same compound, the “% apoptotic cells” value (Table 4, serum, 48 hr, 0.3 nM) was 6.8%, the “% apoptotic cells” value (Table 4, serum, 48 hr, 1 nM) was 6.4% and the “% apoptotic cells” value (Table 4, serum, 48 hr, 3 nM) was 7.0%. For the same compound, the “% apoptotic cells” value (Table 4, serum, 48 hr, 10 nM) was 7.1%, the “% apoptotic cells” value (Table 4, serum, 48 hr, 30 nM) was 29.4% and the “% apoptotic cells” value (Table 4, serum, 48 hr, 100 nM) was 90.9%. The “% apoptotic cells” value (Table 4, serum, 48 hr, 300 nM) was 93.0%, the “% apoptotic cells” value (Table 4, serum, 48 hr, 1000 nM) was 93.2% and the “% apoptotic cells” value (Table 4, serum, 48 hr, 3000 nM) was 94.6%. The “% apoptotic cells” value [11] was 94.2%, the “% apoptotic cells” value [12] was 8.8% and the “% apoptotic cells” value [13] was 8.5%. For the same compound, the “% apoptotic cells” value [14] was 8.6%, the “% apoptotic cells” value [15] was 15.9% and the “% apoptotic cells” value [16] was 86.5%. The “% apoptotic cells” value [17] was 90.7%, the “% apoptotic cells” value [18] was 91.7% and the “% apoptotic cells” value [19] was 93.1%. For the same compound, the “% apoptotic cells” value (Table 5, medium, 3000 nM) was 93.7%.
`CCNC(=O)O[C@@H]1[C@@]2(C(C)C)O[C@H]2[C@@H]2O[C@]23[C@]12O[C@H]2C[C@H]1C2=C(CC[C@@]13C)C(=O)OC2` [PG666, Triptolide 14-Ethyl Carbamate] was tested, and the “% apoptotic cells” value [1] was 93.6%, the “% apoptotic cells” value [2] was 13.4% and the “% apoptotic cells” value [3] was 14.4%. For the same compound, the “% apoptotic cells” value [4] was 14.0%, the “% apoptotic cells” value [5] was 10.1% and the “% apoptotic cells” value [6] was 11.0%. The “% apoptotic cells” value [7] was 20.6%, the “% apoptotic cells” value [8] was 91.0% and the “% apoptotic cells” value [9] was 92.9%. The “% apoptotic cells” value [10] was 93.5%, the “% apoptotic cells” value (Table 3, medium only, 10000 nM) was 94.3% and the “% apoptotic cells” value (Table 4, medium, 10000 nM) was 92.6%. The “% apoptotic cells” value (Table 4, serum, 0 hr, 10000 nM) was 87.2%, the “% apoptotic cells” value (Table 4, serum, 48 hr, 0.03 nM) was 39.9% and the “% apoptotic cells” value (Table 4, serum, 48 hr, 0.1 nM) was 40.7%. The “% apoptotic cells” value (Table 4, serum, 48 hr, 0.3 nM) was 40.8%, the “% apoptotic cells” value (Table 4, serum, 48 hr, 1 nM) was 41.3% and the “% apoptotic cells” value (Table 4, serum, 48 hr, 3 nM) was 39.8%. For the same compound, the “% apoptotic cells” value (Table 4, serum, 48 hr, 10 nM) was 39.8%, the “% apoptotic cells” value (Table 4, serum, 48 hr, 30 nM) was 39.1% and the “% apoptotic cells” value (Table 4, serum, 48 hr, 100 nM) was 40.2%. For the same compound, the “% apoptotic cells” value (Table 4, serum, 48 hr, 300 nM) was 44.5%, the “% apoptotic cells” value (Table 4, serum, 48 hr, 1000 nM) was 88.6% and the “% apoptotic cells” value (Table 4, serum, 48 hr, 3000 nM) was 96.8%. The “% apoptotic cells” value [11] was 92.3%, the “% apoptotic cells” value [12] was 9.8% and the “% apoptotic cells” value [13] was 10.9%. The “% apoptotic cells” value [14] was 10.4%, the “% apoptotic cells” value [15] was 10.2% and the “% apoptotic cells” value [16] was 9.5%. The “% apoptotic cells” value [17] was 14.9%, the “% apoptotic cells” value [18] was 87.7% and the “% apoptotic cells” value [19] was 91.0%. For the same compound, the “% apoptotic cells” value (Table 5, medium, 1 nM) was 13.9%, the “% apoptotic cells” value (Table 5, medium, 3 nM) was 13.1% and the “% apoptotic cells” value (Table 5, medium, 10 nM) was 13.4%. The “% apoptotic cells” value (Table 5, medium, 30 nM) was 13.0%, the “% apoptotic cells” value (Table 5, medium, 100 nM) was 13.2% and the “% apoptotic cells” value (Table 5, medium, 300 nM) was 14.2%. For the same compound, the “% apoptotic cells” value (Table 5, medium, 1000 nM) was 14.1%, the “% apoptotic cells” value (Table 5, medium, 3000 nM) was 92.1% and the “apoptotic activity (in words)” value [20] was “more active than PG688”. For the same compound, the “concentration for equal apoptotic activity relative to PG490 (triptolide)” value [20] was roughly 10 fold.
With `CC(C)[C@]12O[C@H]1[C@@H]1O[C@]13[C@]1(O[C@H]1C[C@H]1C4=C(CC[C@@]13C)C(=O)OC4)[C@@H]2OC(=O)CCC(=O)O` [PG490-88, triptolide-14-succinate, reference compound] the “% apoptotic cells” value [1] was 89.2%, the “% apoptotic cells” value [2] was 7.8% and the “% apoptotic cells” value [3] was 8.1%. The “% apoptotic cells” value [4] was 7.8%, the “% apoptotic cells” value [5] was 9.1% and the “% apoptotic cells” value [6] was 51.5%. The “% apoptotic cells” value [7] was 92.1%, the “% apoptotic cells” value [8] was 93.9% and the “% apoptotic cells” value [9] was 94.1%. For the same compound, the “% apoptotic cells” value [10] was 95.1%, the “% apoptotic cells” value (Table 3, medium only, 10000 nM) was 93.8% and the “% apoptotic cells” value (Table 4, medium, 10000 nM) was 89.7%. The “% apoptotic cells” value (Table 4, serum, 0 hr, 10000 nM) was 82.9%, the “% apoptotic cells” value (Table 4, serum, 48 hr, 0.03 nM) was 6.6% and the “% apoptotic cells” value (Table 4, serum, 48 hr, 0.1 nM) was 6.5%. For the same compound, the “% apoptotic cells” value (Table 4, serum, 48 hr, 0.3 nM) was 7.0%, the “% apoptotic cells” value (Table 4, serum, 48 hr, 1 nM) was 6.0% and the “% apoptotic cells” value (Table 4, serum, 48 hr, 3 nM) was 6.2%. The “% apoptotic cells” value (Table 4, serum, 48 hr, 10 nM) was 6.2%, the “% apoptotic cells” value (Table 4, serum, 48 hr, 30 nM) was 6.8% and the “% apoptotic cells” value (Table 4, serum, 48 hr, 100 nM) was 30.5%. For the same compound, the “% apoptotic cells” value (Table 4, serum, 48 hr, 300 nM) was 89.6%, the “% apoptotic cells” value (Table 4, serum, 48 hr, 1000 nM) was 92.6% and the “% apoptotic cells” value (Table 4, serum, 48 hr, 3000 nM) was 92.8%. The “% apoptotic cells” value [11] was 93.9%, the “% apoptotic cells” value [12] was 8.6% and the “% apoptotic cells” value [13] was 9.3%. The “% apoptotic cells” value [14] was 8.7%, the “% apoptotic cells” value [15] was 7.8% and the “% apoptotic cells” value [16] was 23.3%. For the same compound, the “% apoptotic cells” value [17] was 88.4%, the “% apoptotic cells” value [18] was 90.5% and the “% apoptotic cells” value [19] was 91.7%. For the same compound, the “% apoptotic cells” value (Table 5, medium, 3000 nM) was 64.8%, the “Conversion, as relative ED50 compared to triptolide (%)” value (“Conversion, as relative ED50 … (%)” for short) [21] was 2% and the “Conversion, as relative ED50 … (%)” value [22] was 2%. The “Conversion, as relative ED50 … (%)” value [23] was 18%, the “Conversion, as relative ED50 … (%)” value [24] was 43% and the EC50 [21] was 2580 nM. It also gave an EC50 [22] of 2270 nM, an EC50 [23] of 328 nM and an EC50 [24] of 147 nM.
